Data reported in US8703961B2, “Thiazole derivatives for the treatment of diseases such as cancer” (Merck Patent GmbH, priority 2009, dated 2014).

Columns and labels:
Assay in all cases: filter binding kinase assay
Format in all cases: biochemical
AKT1 = target: T1, AKT1 (Homo sapiens, UniProt P31749); details: derived from % inhibition at 1 μM
T1 construct: purchased
Outline: (§1)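 Kinase activity is measured at room temperature by filter binding, with incorporated radiolabel counted after acid termination. A 5-minute preincubation of compound, enzyme and substrate precedes addition of ATP from a kinase-dependent stock (5, 20 or 50 […]).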

RPS6KA3 = target: T2, RPS6KA3 (Homo sapiens, UniProt P51812); details: derived from % inhibition at 1 μM
T2 construct: purchased
Outline: as §1

BTK = target: T3, BTK (Homo sapiens, UniProt Q06187); details: derived from % inhibition at 1 μM
T3 construct: purchased
Outline: as §1

MAP2K1 (MKK1) = target: T4, MAP2K1 (MKK1) (Homo sapiens, UniProt Q02750); details: for IC50: derived from % inhibition at 1 μM
T4 construct: purchased
Outline: as §1

IKBKB = target: T5, IKBKB (Homo sapiens, UniProt O14920); details: derived from % inhibition at 1 μM
T5 construct: purchased
T5 sequence (O14920 1-756): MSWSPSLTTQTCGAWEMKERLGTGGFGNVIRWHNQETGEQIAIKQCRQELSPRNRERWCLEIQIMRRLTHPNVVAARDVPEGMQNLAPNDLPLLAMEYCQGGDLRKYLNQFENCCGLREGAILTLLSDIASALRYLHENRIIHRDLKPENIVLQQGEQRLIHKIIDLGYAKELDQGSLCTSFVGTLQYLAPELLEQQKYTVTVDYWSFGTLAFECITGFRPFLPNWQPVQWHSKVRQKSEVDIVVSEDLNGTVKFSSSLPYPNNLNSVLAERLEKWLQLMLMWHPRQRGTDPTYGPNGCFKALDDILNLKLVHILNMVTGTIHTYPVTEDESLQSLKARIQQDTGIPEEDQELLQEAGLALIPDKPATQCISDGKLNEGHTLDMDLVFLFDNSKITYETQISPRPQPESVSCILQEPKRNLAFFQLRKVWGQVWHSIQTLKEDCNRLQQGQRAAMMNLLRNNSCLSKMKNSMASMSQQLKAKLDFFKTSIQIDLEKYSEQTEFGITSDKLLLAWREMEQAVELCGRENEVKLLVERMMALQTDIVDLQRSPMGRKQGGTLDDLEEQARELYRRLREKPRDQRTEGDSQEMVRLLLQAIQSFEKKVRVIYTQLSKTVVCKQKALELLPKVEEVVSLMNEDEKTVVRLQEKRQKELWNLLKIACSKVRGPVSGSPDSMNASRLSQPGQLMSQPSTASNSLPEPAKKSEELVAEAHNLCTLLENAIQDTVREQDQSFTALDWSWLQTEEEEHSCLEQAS
Outline: as §1

LCK = target: T6, LCK (Homo sapiens, UniProt P06239); details: derived from % inhibition at 1 μM
T6 construct: purchased
Outline: as §1

CAMK1 = target: T7, CAMK1 (Homo sapiens, UniProt Q14012); details: derived from % inhibition at 1 μM
T7 construct: purchased
Outline: as §1

IGF1R = target: T8, IGF1R (Homo sapiens, UniProt P08069); details: derived from % inhibition at 1 μM
T8 construct: purchased
Outline: as §1

TGFBR1 = target: T9, TGFBR1 (Homo sapiens, UniProt P36897); details: derived from % inhibition at 1 μM
T9 construct: purchased
T9 sequence (P36897 34-503): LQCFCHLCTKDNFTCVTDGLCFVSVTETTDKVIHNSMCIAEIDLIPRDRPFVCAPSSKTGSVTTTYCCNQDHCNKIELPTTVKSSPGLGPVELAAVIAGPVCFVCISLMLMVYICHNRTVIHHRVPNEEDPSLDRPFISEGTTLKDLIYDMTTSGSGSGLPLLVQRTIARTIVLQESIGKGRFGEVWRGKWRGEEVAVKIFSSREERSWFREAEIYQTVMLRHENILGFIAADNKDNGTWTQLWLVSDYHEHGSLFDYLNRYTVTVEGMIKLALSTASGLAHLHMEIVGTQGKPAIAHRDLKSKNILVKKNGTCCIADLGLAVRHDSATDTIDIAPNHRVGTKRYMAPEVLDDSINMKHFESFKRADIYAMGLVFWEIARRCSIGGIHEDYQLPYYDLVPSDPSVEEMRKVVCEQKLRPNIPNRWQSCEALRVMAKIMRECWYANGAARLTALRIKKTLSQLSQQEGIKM
Outline: as §1

PIM1 = target: T10, PIM1 (Homo sapiens, UniProt P11309); details: derived from % inhibition at 1 μM
T10 construct: purchased
Outline: as §1

BRSK1 = target: T11, BRSK1 (Homo sapiens, UniProt Q8TDC3); details: derived from % inhibition at 1 μM
T11 construct: purchased
T11 sequence (Q8TDC3 1-778): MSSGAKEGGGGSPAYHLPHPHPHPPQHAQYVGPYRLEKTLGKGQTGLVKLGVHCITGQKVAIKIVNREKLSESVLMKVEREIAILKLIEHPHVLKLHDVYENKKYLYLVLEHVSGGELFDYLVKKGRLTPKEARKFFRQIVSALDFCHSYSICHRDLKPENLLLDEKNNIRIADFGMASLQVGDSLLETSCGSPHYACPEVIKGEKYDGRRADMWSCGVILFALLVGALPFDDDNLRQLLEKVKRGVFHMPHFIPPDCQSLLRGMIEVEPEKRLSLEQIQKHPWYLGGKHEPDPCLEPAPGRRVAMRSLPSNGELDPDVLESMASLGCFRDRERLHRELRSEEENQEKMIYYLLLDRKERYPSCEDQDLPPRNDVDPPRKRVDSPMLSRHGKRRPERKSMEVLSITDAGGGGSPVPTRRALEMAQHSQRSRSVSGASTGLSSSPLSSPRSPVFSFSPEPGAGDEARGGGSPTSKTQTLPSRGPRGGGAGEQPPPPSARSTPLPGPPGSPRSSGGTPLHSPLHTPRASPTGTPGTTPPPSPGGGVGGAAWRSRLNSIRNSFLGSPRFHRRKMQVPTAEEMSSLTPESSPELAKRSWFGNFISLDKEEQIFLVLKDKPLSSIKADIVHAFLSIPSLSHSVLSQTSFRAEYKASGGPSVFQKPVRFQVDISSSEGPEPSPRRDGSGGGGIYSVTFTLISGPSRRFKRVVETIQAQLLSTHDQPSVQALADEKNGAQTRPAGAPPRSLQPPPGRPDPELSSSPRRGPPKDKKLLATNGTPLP
Outline: as §1

PIM2 = target: T12, PIM2 (Homo sapiens, UniProt Q9P1W9); details: derived from % inhibition at 1 μM
T12 construct: purchased
Outline: as §1

T3 sequence (Q06187 whole entry, species assumed): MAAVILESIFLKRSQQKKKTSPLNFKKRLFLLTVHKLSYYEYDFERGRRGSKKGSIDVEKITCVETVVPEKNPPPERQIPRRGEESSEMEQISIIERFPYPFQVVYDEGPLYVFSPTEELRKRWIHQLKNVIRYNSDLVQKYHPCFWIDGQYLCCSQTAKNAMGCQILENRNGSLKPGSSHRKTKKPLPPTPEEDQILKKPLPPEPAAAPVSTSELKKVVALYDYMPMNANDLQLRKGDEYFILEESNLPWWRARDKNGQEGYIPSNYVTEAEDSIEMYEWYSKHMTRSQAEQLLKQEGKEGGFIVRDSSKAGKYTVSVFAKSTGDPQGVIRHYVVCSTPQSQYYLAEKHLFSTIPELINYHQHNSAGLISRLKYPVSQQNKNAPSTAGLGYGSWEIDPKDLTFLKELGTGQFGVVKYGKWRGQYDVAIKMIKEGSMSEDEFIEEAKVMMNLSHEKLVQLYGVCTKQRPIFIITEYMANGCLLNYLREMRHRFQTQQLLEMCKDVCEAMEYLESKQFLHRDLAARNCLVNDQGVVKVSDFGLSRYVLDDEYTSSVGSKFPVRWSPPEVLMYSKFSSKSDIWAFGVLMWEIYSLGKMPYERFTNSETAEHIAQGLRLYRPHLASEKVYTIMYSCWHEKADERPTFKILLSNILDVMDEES
T6 sequence (P06239 whole entry, species assumed): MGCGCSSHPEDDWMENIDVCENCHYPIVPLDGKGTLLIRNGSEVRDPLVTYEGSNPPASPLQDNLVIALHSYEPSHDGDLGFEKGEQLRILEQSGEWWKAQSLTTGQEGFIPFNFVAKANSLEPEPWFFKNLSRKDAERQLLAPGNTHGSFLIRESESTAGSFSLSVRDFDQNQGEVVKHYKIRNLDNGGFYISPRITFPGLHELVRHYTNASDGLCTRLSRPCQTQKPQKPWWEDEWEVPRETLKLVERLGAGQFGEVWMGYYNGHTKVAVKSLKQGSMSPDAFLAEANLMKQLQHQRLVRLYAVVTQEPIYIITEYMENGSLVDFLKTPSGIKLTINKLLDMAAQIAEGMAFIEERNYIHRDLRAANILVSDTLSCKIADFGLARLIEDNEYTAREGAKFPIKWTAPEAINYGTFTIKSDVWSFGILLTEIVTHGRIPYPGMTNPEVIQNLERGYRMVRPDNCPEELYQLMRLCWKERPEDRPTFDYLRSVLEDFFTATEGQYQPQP
T12 sequence (Q9P1W9 whole entry, species assumed): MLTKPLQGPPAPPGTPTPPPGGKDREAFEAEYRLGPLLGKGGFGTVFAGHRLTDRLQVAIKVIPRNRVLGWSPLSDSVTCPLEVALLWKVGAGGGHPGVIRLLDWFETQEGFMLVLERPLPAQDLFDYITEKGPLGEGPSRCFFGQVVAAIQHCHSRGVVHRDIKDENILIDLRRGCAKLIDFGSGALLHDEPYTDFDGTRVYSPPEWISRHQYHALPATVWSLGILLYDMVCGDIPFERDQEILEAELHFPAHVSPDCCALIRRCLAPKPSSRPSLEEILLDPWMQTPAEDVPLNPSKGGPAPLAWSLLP
T8 sequence (P08069 31-1367, species assumed): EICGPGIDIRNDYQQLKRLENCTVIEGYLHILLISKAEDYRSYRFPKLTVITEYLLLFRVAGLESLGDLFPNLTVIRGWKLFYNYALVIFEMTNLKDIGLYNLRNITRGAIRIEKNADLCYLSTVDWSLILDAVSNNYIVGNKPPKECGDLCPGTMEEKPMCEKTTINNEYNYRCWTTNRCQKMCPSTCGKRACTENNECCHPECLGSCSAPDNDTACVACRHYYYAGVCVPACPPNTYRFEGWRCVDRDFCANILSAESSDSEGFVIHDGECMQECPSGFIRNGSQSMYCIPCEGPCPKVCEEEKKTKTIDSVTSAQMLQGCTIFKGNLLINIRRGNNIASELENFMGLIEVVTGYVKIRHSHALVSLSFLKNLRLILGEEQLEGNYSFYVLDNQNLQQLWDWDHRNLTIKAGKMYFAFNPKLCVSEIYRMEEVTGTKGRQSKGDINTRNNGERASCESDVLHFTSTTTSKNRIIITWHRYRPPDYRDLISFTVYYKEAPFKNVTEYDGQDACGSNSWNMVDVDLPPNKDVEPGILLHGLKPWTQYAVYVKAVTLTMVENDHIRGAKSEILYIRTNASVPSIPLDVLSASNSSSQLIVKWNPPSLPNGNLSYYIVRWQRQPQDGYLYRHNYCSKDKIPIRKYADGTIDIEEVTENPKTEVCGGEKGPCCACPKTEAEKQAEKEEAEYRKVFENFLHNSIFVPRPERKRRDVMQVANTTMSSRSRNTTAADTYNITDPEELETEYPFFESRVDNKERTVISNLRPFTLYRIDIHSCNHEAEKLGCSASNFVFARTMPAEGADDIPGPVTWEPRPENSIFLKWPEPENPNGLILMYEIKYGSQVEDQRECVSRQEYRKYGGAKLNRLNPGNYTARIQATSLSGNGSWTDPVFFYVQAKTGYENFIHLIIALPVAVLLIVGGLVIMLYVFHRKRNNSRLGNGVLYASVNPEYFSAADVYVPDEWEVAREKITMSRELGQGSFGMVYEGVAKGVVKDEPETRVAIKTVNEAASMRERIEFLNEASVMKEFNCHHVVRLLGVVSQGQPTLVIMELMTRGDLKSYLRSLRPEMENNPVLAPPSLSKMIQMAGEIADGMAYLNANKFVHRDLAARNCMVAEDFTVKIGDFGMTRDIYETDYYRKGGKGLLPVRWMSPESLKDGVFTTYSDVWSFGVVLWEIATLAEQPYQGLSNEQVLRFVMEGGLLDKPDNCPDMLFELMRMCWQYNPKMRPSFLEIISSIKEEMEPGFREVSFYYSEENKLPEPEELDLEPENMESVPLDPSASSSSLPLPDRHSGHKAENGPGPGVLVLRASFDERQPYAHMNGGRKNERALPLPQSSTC
T2 sequence (P51812 whole entry, species assumed): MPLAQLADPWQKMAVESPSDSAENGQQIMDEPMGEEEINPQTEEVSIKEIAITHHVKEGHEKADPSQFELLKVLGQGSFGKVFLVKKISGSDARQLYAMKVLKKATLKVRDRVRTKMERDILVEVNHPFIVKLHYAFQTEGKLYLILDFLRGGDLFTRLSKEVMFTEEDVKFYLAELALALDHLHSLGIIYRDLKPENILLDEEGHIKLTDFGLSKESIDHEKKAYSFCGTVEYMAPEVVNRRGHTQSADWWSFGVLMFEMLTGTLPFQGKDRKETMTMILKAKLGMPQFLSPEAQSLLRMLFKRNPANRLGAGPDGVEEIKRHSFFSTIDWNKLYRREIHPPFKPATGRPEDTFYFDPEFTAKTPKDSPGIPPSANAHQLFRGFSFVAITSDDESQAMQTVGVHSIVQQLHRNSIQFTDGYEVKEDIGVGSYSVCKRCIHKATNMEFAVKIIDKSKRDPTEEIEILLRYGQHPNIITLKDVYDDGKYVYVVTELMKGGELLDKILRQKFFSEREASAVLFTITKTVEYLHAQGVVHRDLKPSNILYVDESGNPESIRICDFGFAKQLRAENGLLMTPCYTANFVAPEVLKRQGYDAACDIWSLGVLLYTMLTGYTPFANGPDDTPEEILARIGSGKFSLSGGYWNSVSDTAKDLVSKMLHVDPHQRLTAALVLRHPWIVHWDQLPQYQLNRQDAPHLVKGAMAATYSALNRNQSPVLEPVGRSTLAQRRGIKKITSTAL
T4 sequence (Q02750 whole entry, species assumed): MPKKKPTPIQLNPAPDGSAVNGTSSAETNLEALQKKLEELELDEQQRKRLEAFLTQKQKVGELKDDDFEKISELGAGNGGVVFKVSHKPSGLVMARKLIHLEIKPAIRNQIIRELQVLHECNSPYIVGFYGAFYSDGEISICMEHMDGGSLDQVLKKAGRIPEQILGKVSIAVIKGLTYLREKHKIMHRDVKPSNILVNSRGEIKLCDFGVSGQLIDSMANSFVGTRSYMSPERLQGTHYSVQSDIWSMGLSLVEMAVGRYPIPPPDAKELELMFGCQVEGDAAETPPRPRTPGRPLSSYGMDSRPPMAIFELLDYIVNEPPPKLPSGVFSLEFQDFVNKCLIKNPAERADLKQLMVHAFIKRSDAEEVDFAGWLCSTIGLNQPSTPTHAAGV
T1 sequence (P31749 whole entry, species assumed): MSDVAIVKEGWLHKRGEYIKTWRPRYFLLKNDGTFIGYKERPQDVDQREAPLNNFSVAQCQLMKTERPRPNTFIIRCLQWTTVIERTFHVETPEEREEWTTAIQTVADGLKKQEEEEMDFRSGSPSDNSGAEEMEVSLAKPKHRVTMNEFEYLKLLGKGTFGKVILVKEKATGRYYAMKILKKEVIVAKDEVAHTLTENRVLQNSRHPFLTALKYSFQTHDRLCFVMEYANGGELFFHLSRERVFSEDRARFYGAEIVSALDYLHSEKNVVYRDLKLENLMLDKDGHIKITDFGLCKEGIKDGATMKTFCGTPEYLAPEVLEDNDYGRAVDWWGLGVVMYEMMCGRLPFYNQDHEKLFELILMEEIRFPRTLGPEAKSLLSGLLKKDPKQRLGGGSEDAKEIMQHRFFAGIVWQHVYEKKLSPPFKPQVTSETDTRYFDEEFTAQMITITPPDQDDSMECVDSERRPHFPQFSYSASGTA
T10 sequence (P11309 whole entry, species assumed): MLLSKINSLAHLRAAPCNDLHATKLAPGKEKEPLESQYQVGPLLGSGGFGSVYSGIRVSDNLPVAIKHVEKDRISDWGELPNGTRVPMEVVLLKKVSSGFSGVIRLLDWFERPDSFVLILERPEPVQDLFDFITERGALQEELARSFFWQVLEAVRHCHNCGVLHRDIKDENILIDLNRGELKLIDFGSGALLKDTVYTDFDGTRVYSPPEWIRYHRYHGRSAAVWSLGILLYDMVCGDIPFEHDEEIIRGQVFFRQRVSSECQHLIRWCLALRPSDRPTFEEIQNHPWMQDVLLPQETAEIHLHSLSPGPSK

`CC(C)(C)OC(=O)Nc1nc(-c2ccncc2)sc1C#CCN1CCOCC1` [Compound A25, tert-butyl[5-(3-morpholin-4-ylprop-1-ynyl)-2-pyridin-4-ylthiazol-4-yl]-carbamate] was tested, and the IC50 (AKT1) was > 1 µM, the IC50 (RPS6KA3) was > 1 µM and the IC50 (BTK) was 10 to 100 µM. The IC50 (MAP2K1 (MKK1)) was 1 to 10 µM, the IC50 (IKBKB) was > 1 µM and the IC50 (LCK) was > 1 µM. For the same molecule, the IC50 (CAMK1) was 1 to 10 µM, the IC50 (IGF1R) was > 1 µM and the IC50 (TGFBR1) was 1 to 10 µM. For the same molecule, the IC50 (PIM1) was > 1 µM, the IC50 (BRSK1) was > 1 µM and the IC50 (PIM2) was 1 to 10 µM.
For `c1ccc(Cc2c[nH]c3ncsc23)cc1` [Compound A7, 6-benzyl-4H-pyrrolo[2,3-d]thiazole], the IC50 (AKT1) was > 1 µM, the IC50 (RPS6KA3) was 1 to 10 µM and the IC50 (BTK) was 10 to 100 µM. It also gave an IC50 (MAP2K1 (MKK1)) of 1 to 10 µM, an IC50 (IKBKB) of 1 to 10 µM and an IC50 (LCK) of 10 to 100 µM. For the same molecule, the IC50 (CAMK1) was 1 to 10 µM, the IC50 (IGF1R) was 10 to 100 µM and the IC50 (TGFBR1) was 10 to 100 µM. For the same molecule, the IC50 (PIM1) was 10 to 100 µM, the IC50 (BRSK1) was 1 to 10 µM and the IC50 (PIM2) was > 1 µM.
`Nc1ncsc1C#Cc1cnc2[nH]ccc2c1` [Compound A22, 5-(1H-pyrrolo[2,3-b]pyridin-5-ylethynyl)thiazol-4-ylamine] showed an IC50 (AKT1) of 10 to 100 µM, an IC50 (RPS6KA3) of 10 to 100 µM and an IC50 (BTK) of 10 to 100 µM. The IC50 (MAP2K1 (MKK1)) was 0.01 to 1 µM, the remaining activity at 1 µM (MAP2K1 (MKK1); read-out: residual kinase activity MKK1) was 43% and the IC50 (IKBKB) was 10 to 100 µM. The IC50 (LCK) was > 1 µM, the IC50 (CAMK1) was 10 to 100 µM and the IC50 (IGF1R) was 1 to 10 µM. The IC50 (TGFBR1) was 10 to 100 µM, the IC50 (PIM1) was 1 to 10 µM and the IC50 (BRSK1) was 1 to 10 µM. It also gave an IC50 (PIM2) of 10 to 100 µM.
`Nc1ncsc1C#Cc1cccc(O)c1` [Compound A27, 3-(4-aminothiazol-5-ylethynyl)phenol] was tested, and the IC50 (AKT1) was > 1 µM, the IC50 (RPS6KA3) was 1 to 10 µM and the IC50 (BTK) was 10 to 100 µM. For the same molecule, the IC50 (MAP2K1 (MKK1)) was > 1 µM, the IC50 (IKBKB) was 1 to 10 µM and the IC50 (LCK) was 1 to 10 µM. For the same molecule, the IC50 (CAMK1) was 1 to 10 µM, the IC50 (IGF1R) was > 1 µM and the IC50 (TGFBR1) was 1 to 10 µM. The IC50 (PIM1) was 1 to 10 µM, the IC50 (BRSK1) was 1 to 10 µM and the IC50 (PIM2) was 1 to 10 µM.
`CC(C)(C)OC(=O)Nc1ncsc1C#CCN1C(=O)c2ccccc2C1=O` [Compound A26, tert-butyl{5-[3-(1,3-dioxo-1,3-dihydroisoindol-2-yl)prop-1-ynyl]-thiazol-4-yl}carbamate] was tested, and the IC50 (AKT1) was > 1 µM, the IC50 (RPS6KA3) was > 1 µM and the IC50 (BTK) was > 1 µM. The IC50 (MAP2K1 (MKK1)) was 1 to 10 µM, the IC50 (IKBKB) was > 1 µM and the IC50 (LCK) was > 1 µM. The IC50 (CAMK1) was > 1 µM, the IC50 (IGF1R) was > 1 µM and the IC50 (TGFBR1) was 10 to 100 µM. The IC50 (PIM1) was 10 to 100 µM, the IC50 (BRSK1) was > 1 µM and the IC50 (PIM2) was > 1 µM.
